Data reported in article PMC4439283 (The FEBS journal, 2015).
Where two headings read alike, the source gives them in different places.

Key:
R5 viruses [1] = settings: ref [16]; cited from earlier work
X4 strain LAV = settings: ref [15]; cited from earlier work
X4 viruses [2] = settings: ref [15]; cited from earlier work
[3] = in solution; ref [16]; cited from earlier work
X4 viruses [4] = settings: ref [16]; cited from earlier work
R5 viruses [5] = settings: ref [15], cited from earlier work
[6] = biological target: biotinylated ECL2S peptide (Biotin-GSGS-CCR5 R168-K197 C178S-GSGS) (human); assay: SPR
[7] = biological target: biotinylated ECL2S peptide (Biotin-GSGS-CCR5 R168-K197 C178S-GSGS) (human); assay: SPR; remark: listed apart in the source
[8] = biological target: biotinylated ECL2S peptide (Biotin-GSGS-CCR5 R168-K197 C178S-GSGS) (human); assay: SPR; remark: listed apart in the source

Substance	neutralization concentration range (R5 viruses [1])	neutralization of X4 strain LAV (X4 strain LAV)	fusion inhibition, X4 viruses (X4 viruses [2])	conformation of free peptide [3]	neutralization concentration range (X4 viruses [4])	strain specificity (R5 viruses [5]; R5 strains)	50% inhibition concentration, fusion (R5 viruses [5]; R5 virus Ba-L)	fusion inhibition, R5 viruses (R5 viruses [5]; fusion of R5 viruses with target cells)	Kd [6]	Kd [7]	Kd [8]
PL2: CCR5 ECL2 peptide, residues 168-191 (RSQKEGLHYTCSSHFPYSQYQFWK; UniProt P51681 168-191, looked up, fragment)	~100 µM	None of these peptides neutralized the X4 strain LAV	did not inhibit fusion of X4 viruses	unstructured in solution	~100 µM	specific for R5 strains	20 µg/mL	inhibited the fusion of R5 viruses with target cells			
^mutgp120_(core) (HIV-1 JR-FL gp120 88-492, ΔV1/V2, V3 replaced by GAG, non-aggregating mutant) (domain or fragment)									18 µM		
^mutgp120_(core)/CD4M33 complex									6 µM	7.5 µM	7 µM
